Laboratory results from patent publication US11014896B2, “TRPA1 and TRPV4 inhibitors and methods of using the same for organ-specific inflammation and itch” (Duke University, priority 2014, dated 2021).
“Also recorded” adds a separate entry of the source.

Tests used:
human TRPV3 = biological target: T1, human TRPV3 (Homo sapiens, UniProt Q8NET8); assay: Ca2+ signal in N2a cells transfected with human TRPV3; assay type: cell-based; conditions: stimulation with camphor
T1 construct: expressed in transfected cells; host or cells: N2a cells
T1 sequence (Q8NET8 1-790): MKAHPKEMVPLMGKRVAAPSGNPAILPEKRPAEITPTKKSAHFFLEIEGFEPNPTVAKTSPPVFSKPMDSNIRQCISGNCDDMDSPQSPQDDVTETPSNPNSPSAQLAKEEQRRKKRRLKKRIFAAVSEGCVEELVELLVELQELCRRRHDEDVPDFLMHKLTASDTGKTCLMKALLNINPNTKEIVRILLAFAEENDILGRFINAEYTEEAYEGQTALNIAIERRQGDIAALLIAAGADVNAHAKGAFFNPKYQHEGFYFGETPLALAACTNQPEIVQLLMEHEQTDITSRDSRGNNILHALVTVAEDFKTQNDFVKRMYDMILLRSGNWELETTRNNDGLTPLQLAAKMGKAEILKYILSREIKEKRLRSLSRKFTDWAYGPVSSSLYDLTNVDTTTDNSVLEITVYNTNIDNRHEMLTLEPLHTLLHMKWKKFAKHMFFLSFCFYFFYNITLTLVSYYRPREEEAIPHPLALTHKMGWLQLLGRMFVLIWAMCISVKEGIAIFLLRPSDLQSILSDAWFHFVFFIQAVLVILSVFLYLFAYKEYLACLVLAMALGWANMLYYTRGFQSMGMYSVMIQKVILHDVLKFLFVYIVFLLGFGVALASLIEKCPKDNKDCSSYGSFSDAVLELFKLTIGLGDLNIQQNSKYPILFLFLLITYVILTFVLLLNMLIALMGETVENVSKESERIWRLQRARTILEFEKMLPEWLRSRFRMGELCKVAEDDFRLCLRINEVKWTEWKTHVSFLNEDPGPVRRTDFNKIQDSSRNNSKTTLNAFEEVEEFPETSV
Procedure: Compounds were tested for their effect on TRPV1, TRPV2, and TRPV3. Methods were similar to those described in Example 15. Briefly, N2a cells were transfected with human TRPV1, TRPV2, or TRPV3. eGFP-transfection was used as control. For specific stimulation of TRPV1, 5 μM capsaicin was used. For stimulation of TRPV2, hypotonicity (260 mosmol/L) was used, based on previous reports of TRPV2 being osmotically responsive. N2a cells were not responsive to hypotonicity, and neither were control-transfected cells. For TRPV3-expressing cells, camphor (20% of a commercially available stock solution) was used. […] Stimulation and control protocols were applied as for TRPA1-expressing N2a cells as detailed above in Example 15.

IL-1β = assay: Keratinocyte IL-1β expression in UVB-exposed footpad after topical treatment; assay type: in vivo, mouse; conditions: 5 mM GSK205 topical
Procedure: (§1) GSK205 topical treatment: A viscous solution of 68% EtOH/5% glycerol plus 1 mM or 5 mM GSK205 (none for control) was applied to hindpaws by rubbing in 20 μL, applied at time-points 1 hour and again 10 min before UV exposure.
Routine procedures were followed as described previously (Chen et al., 2009). Mice were perfused transcardially with 30 mL PBS, followed by 30 mL 4% paraformaldehyde. Tissues, including the L5 DRGs (bilateral), and footpad preparations, were dissected and post-fixed in 4% paraformaldehyde. Tissue blocks were further cryoprotected in 30% sucrose in PBS for 24-48 hours. For mouse TRPV4, keratin-specific antibodies, phospho-ERK, IL-6, IL-1β, CXCL5 and caspase-1, tissue was prepared as frozen blocks and subsequently sectioned on a cryostat. For CD68, CD15 (neutrophil elastase) and CD3, mouse skin was prepared by 2% PFA perfusion. […]

[1] = UVB-induced nocifensive behavior after topical GSK205 (Hargreaves' test, von Frey hair); assay type: in vivo, mouse
Procedure: Behavioral tests were performed to evaluate the decrease in withdrawal thresholds in response to mechanical von Frey hair or thermal stimuli applied to hind paws. […]. These withdrawal thresholds were ascertained before and after UV exposure. Mice were exposed using a Bio Rad Gel Doc 2000 UV transilluminator (302 nm) for 5 minutes with an exposure of 600 mJ/cm^2, 3-5 days after the last application of tamoxifen/oil.
as §1
Behavioral tests were performed to evaluate the decrease in withdrawal thresholds in response to mechanical or thermal stimuli applied to hind paws. These withdrawal thresholds were ascertained before and after UVB exposure. Mice were confined by plexi-glass enclosures on top of 25×26 cm Bio Rad Gel Doc 2000 UV transilluminator (302 nm), and otherwise allowed to openly explore this environment. UV-exposure lasted for 5 minutes with an exposure of 600 mJ/cm^2.
Hindpaw mechanical withdrawal thresholds were determined by the automated von Frey hair method, using a 0.5 mm diameter stainless steel filament, part of an automated plantar touch stimulator (Ugo Basile, Modena, Italy). Relevant detail included pre-test acclimatization in a quiet room for 30 min, conducting the test at the same time of day and blinded observers. The stimulus was delivered to the hindpaw, automatically discontinued upon withdrawal, and its intensity recorded automatically. 6-8 trials per animal were conducted, with equal exposure of both hindpaws, leading to an average withdrawal threshold. Results are reported as […], which was calculated by subtracting post-treatment from pre-treatment measurements, expressed as % or relative to 1.0.
Hindpaw thermal (hot) withdrawal thresholds were determined by the well-established Hargreaves' method, using an infra-red thermal stimulation device that delivers the stimulus from underneath the hindpaw combined with automatic shut-off upon withdrawal (Ugo Basile). Stimulation and measurements were conducted as described for von Frey hair testing. A cutoff of 20 sec was set to prevent tissue damage.

CN(CCc1ccc(Nc2nc(-c3ccccc3)cs2)cc1)Cc1ccccc1 [Compound 16-8]
Ca2+ transience on TRPV3 stimulation (human TRPV3): not affected

CN(CCc1ccc(Nc2nc(-c3cccnc3)cs2)cc1)Cc1ccccc1 [GSK205]
keratinocyte expression of IL-1β in UVB-exposed footpad (IL-1β): failed to upregulate; also recorded: attenuates keratinocyte expression of IL-1β
delay in thermal sensitivity after UVB ([1]; 1 mM GSK205 topical, WT mice): ~24 h
thermally-evoked nocifensive behavior (Hargreaves' test) after UVB ([1]; 5 mM GSK205 topical, 60′ and 10′ pre-exposure, WT mice): sustained attenuation of thermally-evoked nocifensive behavior; also recorded: significant attenuation of thermal allodynia
nocifensive behavior after UVB in Trpv4−/− mice vs. vehicle (off-target effects) ([1]; 5 mM GSK205 topical, Trpv4−/− mice): did not show any inter-group differences; also recorded: lack of off-target effects
sensitivity to von Frey hair mechanical stimulation after UVB ([1]; topical GSK205, WT mice): significantly reduced sensitivity
